According to ChEMBL document CHEMBL1127835, “Structure-activity relationships of N6-benzyladenosine-5'-uronamides as A3-selective adenosine agonists” (J Med Chem, 1994):

Assays:
[1] = target: Adenosine A2 receptor (Rattus norvegicus, UniProt P29276+P30543)
Description: Binding affinity for A2-adenosine receptor by the displacement of specific [3H]-CGS- binding in rat striatal membranes was determined

[2] = Ratio of binding affinities for A2 receptor compared to that of A3 receptor
[3] = target: T1, Adenosine receptor A1 (Rattus norvegicus, UniProt P25099); experiment: biochemical
T1 sequence (P25099 whole entry): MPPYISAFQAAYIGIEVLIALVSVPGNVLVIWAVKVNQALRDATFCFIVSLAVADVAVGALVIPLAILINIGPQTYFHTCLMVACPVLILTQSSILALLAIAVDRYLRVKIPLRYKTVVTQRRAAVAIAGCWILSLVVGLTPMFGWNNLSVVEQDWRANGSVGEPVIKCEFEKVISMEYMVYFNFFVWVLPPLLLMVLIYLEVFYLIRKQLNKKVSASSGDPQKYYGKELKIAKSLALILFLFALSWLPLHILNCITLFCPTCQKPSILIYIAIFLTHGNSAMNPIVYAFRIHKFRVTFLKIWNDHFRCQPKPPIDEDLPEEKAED
Description: Binding affinity for A1-adenosine receptor by the displacement of specific [3H]-PIA binding in rat brain was determined

[4] = target: T2, Adenosine receptor A3 (Rattus norvegicus, UniProt P28647); experiment: biochemical
T2 sequence (P28647 whole entry): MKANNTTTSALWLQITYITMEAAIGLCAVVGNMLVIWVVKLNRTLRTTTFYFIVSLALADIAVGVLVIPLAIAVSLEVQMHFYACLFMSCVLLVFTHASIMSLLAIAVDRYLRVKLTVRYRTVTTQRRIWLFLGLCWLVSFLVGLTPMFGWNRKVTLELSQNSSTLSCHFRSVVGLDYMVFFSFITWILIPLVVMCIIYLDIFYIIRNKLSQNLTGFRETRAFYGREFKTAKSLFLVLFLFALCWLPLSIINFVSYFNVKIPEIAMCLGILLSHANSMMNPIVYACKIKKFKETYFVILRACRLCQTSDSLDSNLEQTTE
Description: Binding affinity for rat A3-adenosine receptor expressed in chinese hamster ovarian cells (assayed by the displacement of specific [125I]-N6-(4-amino-3-iodobenzyl)-adenosine-5''-N-methyluronamide)

[5] = target: T2, Adenosine receptor A3
Description: Binding affinity for recombinant rat A3-adenosine receptor by the displacement of specific [125I]APNEA or [125I]-N6-(4-amino-3-iodobenzyl)-adenosine-5'-N-methyluronamide

[6] = target: T3, Adenosine receptor A1 (Rattus norvegicus) (UniProt P25099); experiment: Percentage inhibition against [3H]PIA binding to A1-adenosine receptor in rat brain at 10e-5 nM; type: tissue-based
T3 sequence (whole entry): T1 sequence (P25099 whole entry)

[7] = target: T4, Adenosine A2 receptor (Rattus norvegicus) (UniProt P29276+P30543); experiment: Percentage inhibition of [3H]-CGS- 21680 binding to […] receptor in rat brain at 10e-5 nM; type: tissue-based
[8] = target: T4, Adenosine A2 receptor (Rattus norvegicus); experiment: Percentage inhibition against [3H]-CGS- 21680 binding to A2-adenosine receptor in rat brain at 1xe-4 nM; type: tissue-based
[9] = target: T3, Adenosine receptor A1 (Rattus norvegicus); experiment: Percentage inhibition against [3H]PIA binding to A1-adenosine receptor in rat brain at 1xe-4 nM; type: tissue-based
[10] = target: T4, Adenosine A2 receptor (Rattus norvegicus); experiment: Percentage inhibition of [3H]-CGS- 21680 binding to […] receptor in rat brain at 10e-4 nM; type: tissue-based
[11] = target: T3, Adenosine receptor A1 (Rattus norvegicus); experiment: Percentage inhibition against [3H]-PIA binding to A1-adenosine receptor in rat brain at 10e-4 nM; type: tissue-based
[12] = target: T3, Adenosine receptor A1 (Rattus norvegicus); settings: Brain, 10e-5 nM
[13] = target: T4, Adenosine A2 receptor (Rattus norvegicus); settings: Brain, 10e-5 nM
Description: Percentage inhibition against [3H]-CGS- 21680 binding to A1-adenosine receptor in rat brain at 10e-5 nM

Row | Ki [1] [nM] | Ratio [2] | Ki [3] [nM] | SMILES | further results
1 | 1590 | 110 |  | CNC(=O)[C@H]1OC(n2cnc3c(NCc4ccc(N)cc4)ncnc32)[C@H](O)[C@@H]1O (stereo partly specified) | 
2 | 794 | 28 | 1000 | CNC(=O)[C@H]1OC(n2cnc3c(NCc4cccc(N)c4)ncnc32)[C@H](O)[C@@H]1O (stereo partly specified) | Ki [4]: 28 nM
3 | 415 | 42 |  | CNC(=O)[C@H]1O[C@@H](n2cnc3c(NCc4cccc(C)c4)ncnc32)[C@H](O)[C@@H]1O | 
4 | 559 | 25 | 916 | CNC(=O)[C@H]1O[C@@H](n2cnc3c(NCc4cccc(Cl)c4)ncnc32)[C@H](O)[C@@H]1O | Ki [5]: 21.9 nM
5 | 2460 | 200 | 516 | CNC(=O)[C@H]1OC(n2cnc3c(NCc4ccc(Br)cc4)ncnc32)[C@H](O)[C@@H]1O (stereo partly specified) | Ki [4]: 12 nM
6 | 2730 | 160 | 478 | CNC(=O)[C@H]1OC(n2cnc3c(NCc4ccc(Cl)cc4)ncnc32)[C@H](O)[C@@H]1O (stereo partly specified) | Ki [4]: 17 nM
7 | 64 | 34 |  | CNC(=O)[C@H]1O[C@@H](n2cnc3c(NCc4cccc(Br)c4)ncnc32)[C@H](O)[C@@H]1O | Ki [4]: 1.9 nM
8 | 120 | 0.085 | 72.6 | NC(=O)[C@H]1OC(n2cnc3c(N)ncnc32)[C@H](O)[C@@H]1O (stereo partly specified) | Ki [5]: 1410 nM
9 | 597 | 37 |  | CNC(=O)[C@H]1O[C@@H](n2cnc3c(NCc4ccccc4)ncnc32)[C@H](O)[C@@H]1O | 
10 |  | > 1 |  | CCNC(=O)[C@H]1OC(n2cnc3c(O)ncnc32)[C@H](O)[C@@H]1O (stereo partly specified) | inhibition [10]: 31%; inhibition [11]: 44%
11 |  | > 10 |  | CNC(=O)[C@H]1O[C@@H](n2cnc3c(O)ncnc32)[C@H](O)[C@@H]1O | inhibition [10]: 6.2%; inhibition [11]: 0%
12 |  | > 1 |  | NCCNC(=O)[C@H]1O[C@@H](n2cnc3c(N)ncnc32)[C@H](O)[C@@H]1O | inhibition [12]: 0%; inhibition [13]: 12.5%

The next lines start with the compound.

Row | SMILES | Ki [1] [nM] | Ratio [2] | Ki [3] [nM] | further results
13 | CCNC(=O)[C@H]1O[C@@H](n2cnc3c(NCc4cccc(F)c4)ncnc32)[C@H](O)[C@@H]1O | 32 | 3 |  | 
14 | NC(=O)[C@H]1O[C@@H](n2cnc3c(NCc4ccccc4)ncnc32)[C@H](O)[C@@H]1O | 423 | 1.7 |  | 
15 | CCNC(=O)[C@H]1O[C@@H](n2cnc3c(N)[n+](Cc4ccccc4[N+](=O)[O-])cnc32)[C@H](O)[C@@H]1[O-] | 83.5 | 3.1 | 196 | Ki [5]: 27 nM
16 | CCNC(=O)[C@H]1O[C@@H](n2cnc3c(NCc4cccc(C)c4)ncnc32)[C@H](O)[C@@H]1O | 17.7 | 15 |  | 
17 | CCNC(=O)[C@H]1O[C@@H](n2cnc3c(NCc4cccc(OC)c4)ncnc32)[C@H](O)[C@@H]1O | 38 | 8.8 |  | 
18 | O=C(NC1CC1)[C@H]1OC(n2cnc3c(NCc4ccccc4)ncnc32)[C@H](O)[C@@H]1O (stereo partly specified) | 55 | 0.53 | 112 | Ki [5]: 103 nM
19 | CCNC(=O)[C@H]1OC(n2cnc3c(N[C@@H](C)c4ccccc4)ncnc32)[C@H](O)[C@@H]1O (stereo partly specified) | 1650 | 3.3 | 65 | Ki [4]: 494 nM
20 | CCNC(=O)[C@H]1OC(n2cnc3c(=O)[nH]cnc32)[C@H](O)[C@@H]1O (stereo partly specified) |  |  |  | Ki [5]: 5000 nM
21 | CCNC(=O)[C@H]1O[C@@H](n2cnc3c(NCc4ccccc4OC)ncnc32)[C@H](O)[C@@H]1O | 21 | 3 |  | 
22 | CCNC(=O)[C@H]1OC(n2cnc3c(N)[n+]([O-])cnc32)[C@H](O)[C@@H]1O (stereo partly specified) | 101 | 0.22 | 154 | Ki [5]: 468 nM
23 | CCNC(=O)[C@H]1O[C@@H](n2cnc3c(NCc4cccc(I)c4)ncnc32)[C@H](O)[C@@H]1O | 7.2 | 8.2 |  | 
24 | CNC(=O)[C@H]1OC(n2cnc3c(NCc4cccc([N+](=O)[O-])c4)ncnc32)[C@H](O)[C@@H]1O (stereo partly specified) | 441 | 23 | 735 | Ki [4]: 19 nM
25 | CC(C)(C)OC(=O)NCCNC(=O)[C@H]1O[C@@H](n2cnc3c(N)ncnc32)[C@H](O)[C@@H]1O |  | > 1 |  | inhibition [6]: 0%; inhibition [7]: 0%
26 | CCNC(=O)[C@H]1O[C@@H](n2cnc3c(NCc4ccc([N+](=O)[O-])cc4)ncnc32)[C@H](O)[C@@H]1O |  | 64 |  | 
27 | CNC(=O)[C@H]1O[C@@H](n2cnc3c(NCc4ccc(N)c(I)c4)ncnc32)[C@H](O)[C@@H]1O | 197 |  | 18 | 
28 | CCNC(=O)[C@H]1O[C@@H](n2cnc3c(NCc4cccc([N+](=O)[O-])c4)ncnc32)[C@H](O)[C@@H]1O | 35 | 4 |  | 
29 | CCNC(=O)[C@H]1OC(n2cnc3c(NCc4cccc(Br)c4)ncnc32)[C@H](O)[C@@H]1O (stereo partly specified) |  |  | 10.9 | Ki [4]: 2.8 nM
30 | CNC(=O)[C@H]1OC(n2cnc3c(NCc4cccc(NC(C)=O)c4)ncnc32)[C@H](O)[C@@H]1O (stereo partly specified) | 988 | 24 | 2970 | Ki [4]: 41.4 nM
31 | CCNC(=O)[C@H]1O[C@@H](n2cnc3c(NCc4ccccc4[N+](=O)[O-])ncnc32)[C@H](O)[C@@H]1O | 24 | 8.6 |  | 
32 | CNC(=O)[C@H]1OC(n2cnc3c(NCc4ccc(S(=O)(=O)O)cc4)ncnc32)[C@H](O)[C@@H]1O (stereo partly specified) |  | > 100 |  | inhibition [8]: 0%; Ki [4]: 4500 nM; inhibition [9]: 0%
33 | CNC(=O)[C@H]1OC(n2cnc3c(NCc4cccc(C(F)(F)F)c4)ncnc32)[C@H](O)[C@@H]1O (stereo partly specified) | 574 | 19 | 496 | Ki [4]: 31 nM
34 | CCNC(=O)[C@H]1O[C@@H](n2cnc3c(N)[n+](Cc4ccc([N+](=O)[O-])cc4)cnc32)[C@H]([O-])[C@@H]1O | 190 | 3.2 | 341 | Ki [5]: 60 nM
35 | CCNC(=O)[C@H]1O[C@@H](n2cnc3c(N[C@H](C)c4ccccc4)ncnc32)[C@H](O)[C@@H]1O | 259 | 14 |  | 
36 | CNC(=O)[C@H]1OC(n2cnc3c(NCc4cccc(S(=O)(=O)O)c4)ncnc32)[C@H](O)[C@@H]1O (stereo partly specified) | 9070 | 6.9 | 19600 | Ki [4]: 1310 nM
37 | CCNC(=O)[C@H]1O[C@@H](n2cnc3c(NCc4ccccc4)ncnc32)[C@H](O)[C@@H]1O | 95 | 14 |  | 
38 | CCNC(=O)[C@H]1O[C@@H](n2cnc3c(NCc4cccc(Cl)c4)ncnc32)[C@H](O)[C@@H]1O | 19 | 17 |  | 
39 | CCNC(=O)[C@H]1O[C@@H](n2cnc3c(NCc4ccc(OC)cc4)ncnc32)[C@H](O)[C@@H]1O | 609 | 55 |  | 
